Laboratory results taken from ChEMBL document CHEMBL1201862, “PubChem BioAssay data set” (2004).
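Assay format: 96-well plates, 48-hour exposure. GI50: concentration for 50% inhibition of growth.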 The source made the active and inactive calls. Rule as the data show it: active = GI50 up to about 1.1 µM and inactive = higher.

Experiments:
Assay in all cases: DTP human tumour cell line panel, 48 h
HOP-62 = test system: HOP-62
OVCAR-5 = test system: OVCAR-5
OVCAR-8 = test system: OVCAR-8
SNB-78 = test system: SNB-78
TK-10 = test system: TK-10
SK-MEL-28 = test system: SK-MEL-28
HL-60 = test system: HL-60
786-0 = test system: 786-0
NCI-H226 = test system: NCI-H226
HCT-116 = test system: HCT-116
M14 = test system: M14
CCRF-CEM = test system: CCRF-CEM
HOP-92 = test system: HOP-92
UACC-257 = test system: UACC-257
SN12C = test system: SN12C
SNB-19 = test system: SNB-19
UO-31 = test system: UO-31
SW-620 = test system: SW-620
SK-MEL-2 = test system: SK-MEL-2
CAKI-1 = test system: CAKI-1
ACHN = test system: ACHN
RPMI-8226 = test system: RPMI-8226
SK-MEL-5 = test system: SK-MEL-5
KM12 = test system: KM12
HCC 2998 = test system: HCC 2998
DMS-273 = test system: DMS-273
HT-29 = test system: HT-29
SF-539 = test system: SF-539
LXFL 529 = test system: LXFL 529
KM-20L2 = test system: KM-20L2
SF-295 = test system: SF-295
M19-MEL = test system: M19-MEL
MOLT-4 = test system: MOLT-4
SF-268 = test system: SF-268
SK-OV-3 = test system: SK-OV-3
NCI-H522 = test system: NCI-H522
UACC-62 = test system: UACC-62
NCI-H23 = test system: NCI-H23
HCT-15 = test system: HCT-15
Malme-3M = test system: Malme-3M
XF498 = test system: XF498
IGROV-1 = test system: IGROV-1
K562 = test system: K562
OVCAR-4 = test system: OVCAR-4
SNB-75 = test system: SNB-75
OVCAR-3 = test system: OVCAR-3
COLO 205 = test system: COLO 205
NCI-H460 = test system: NCI-H460
DLD-1 = test system: DLD-1
A549 = test system: A549
U-251 = test system: U-251
LOX IMVI = test system: LOX IMVI
DMS-114 = test system: DMS-114
EKVX = test system: EKVX
HOP-18 = test system: HOP-18
RXF 393 = test system: RXF 393
SR = test system: SR

Nc1ccc(C(=O)NN2C(=O)C(Cl)C2c2ccccc2O)cc1 (stereo not given)
GI50 (HOP-62): 65.2 µM (inactive) | GI50 (OVCAR-5): 41.7 µM (inactive) | GI50 (OVCAR-8): 42.3 µM (inactive) | GI50 (SNB-78): > 100 µM (inactive) | GI50 (TK-10): > 100 µM (inactive) | GI50 (SK-MEL-28): > 100 µM (inactive) | GI50 (HL-60): 1.15 µM (inactive) | GI50 (786-0): 30.2 µM (inactive) | GI50 (NCI-H226): 69.2 µM (inactive) | GI50 (HCT-116): 60.5 µM (inactive) | GI50 (M14): 24 µM (inactive) | GI50 (CCRF-CEM): 6.01 µM (inactive) | GI50 (HOP-92): > 100 µM (inactive) | GI50 (UACC-257): > 100 µM (inactive) | GI50 (SN12C): > 100 µM (inactive) | GI50 (SNB-19): > 100 µM (inactive) | GI50 (UO-31): 21.9 µM (inactive) | GI50 (SW-620): 73.6 µM (inactive) | GI50 (SK-MEL-2): > 100 µM (inactive) | GI50 (CAKI-1): 47.8 µM (inactive) | GI50 (ACHN): 39.2 µM (inactive) | GI50 (RPMI-8226): 44.5 µM (inactive) | GI50 (SK-MEL-5): 47.4 µM (inactive) | GI50 (KM12): 82.6 µM (inactive) | GI50 (HCC 2998): 18.7 µM (inactive) | GI50 (DMS-273): 55.2 µM (inactive) | GI50 (HT-29): > 100 µM (inactive) | GI50 (SF-539): 85.9 µM (inactive) | GI50 (LXFL 529): 54.2 µM (inactive) | GI50 (KM-20L2): 70 µM (inactive) | GI50 (SF-295): 47.2 µM (inactive) | GI50 (M19-MEL): 49.1 µM (inactive) | GI50 (MOLT-4): 22.5 µM (inactive) | GI50 (SF-268): 70.1 µM (inactive) | GI50 (SK-OV-3): 71.6 µM (inactive) | GI50 (NCI-H522): 62.2 µM (inactive) | GI50 (UACC-62): 72.3 µM (inactive) | GI50 (NCI-H23): > 100 µM (inactive) | GI50 (HCT-15): 35.2 µM | GI50 (Malme-3M): > 100 µM (inactive) | GI50 (XF498): 37.3 µM (inactive) | GI50 (IGROV-1): > 100 µM (inactive) | GI50 (K562): 75 µM (inactive) | GI50 (OVCAR-4): 60.1 µM (inactive) | GI50 (SNB-75): 52.2 µM (inactive) | GI50 (OVCAR-3): 31.7 µM (inactive) | GI50 (COLO 205): 43.2 µM (inactive) | GI50 (NCI-H460): 21.4 µM (inactive) | GI50 (DLD-1): 54.3 µM (inactive) | GI50 (A549): 93.1 µM (inactive) | GI50 (U-251): 36 µM (inactive) | GI50 (LOX IMVI): 18.8 µM (inactive) | GI50 (DMS-114): 21.1 µM (inactive) | GI50 (EKVX): 49.3 µM (inactive)

Cc1ccc(NC(=O)C(=O)C2C(=O)NC(=O)NC2=O)cc1C
GI50 (HOP-62): > 100 µM (inactive) | GI50 (OVCAR-5): > 100 µM (inactive) | GI50 (HOP-18): > 100 µM (inactive) | GI50 (OVCAR-8): > 100 µM (inactive) | GI50 (SNB-78): > 100 µM (inactive) | GI50 (TK-10): > 100 µM (inactive) | GI50 (SK-MEL-28): > 100 µM (inactive) | GI50 (HL-60): > 100 µM (inactive) | GI50 (786-0): > 100 µM (inactive) | GI50 (RXF 393): > 100 µM (inactive) | GI50 (NCI-H226): > 100 µM (inactive) | GI50 (HCT-116): > 100 µM (inactive) | GI50 (M14): > 100 µM (inactive) | GI50 (CCRF-CEM): > 100 µM (inactive) | GI50 (HOP-92): > 100 µM (inactive) | GI50 (UACC-257): > 100 µM (inactive) | GI50 (SN12C): > 100 µM (inactive) | GI50 (SNB-19): > 100 µM (inactive) | GI50 (UO-31): > 100 µM (inactive) | GI50 (SW-620): > 100 µM (inactive) | GI50 (SK-MEL-2): > 100 µM (inactive) | GI50 (CAKI-1): > 100 µM (inactive) | GI50 (ACHN): > 100 µM (inactive) | GI50 (RPMI-8226): > 100 µM (inactive) | GI50 (SK-MEL-5): > 100 µM (inactive) | GI50 (KM12): > 100 µM (inactive) | GI50 (HCC 2998): > 100 µM (inactive) | GI50 (SR): > 100 µM (inactive) | GI50 (DMS-273): > 100 µM (inactive) | GI50 (HT-29): > 100 µM (inactive) | GI50 (SF-539): > 100 µM (inactive) | GI50 (LXFL 529): > 100 µM (inactive) | GI50 (KM-20L2): > 100 µM (inactive) | GI50 (SF-295): > 100 µM (inactive) | GI50 (M19-MEL): > 100 µM (inactive) | GI50 (MOLT-4): > 100 µM (inactive) | GI50 (SF-268): > 100 µM (inactive) | GI50 (SK-OV-3): > 100 µM (inactive) | GI50 (NCI-H522): > 100 µM (inactive) | GI50 (UACC-62): > 100 µM (inactive) | GI50 (NCI-H23): > 100 µM (inactive) | GI50 (HCT-15): > 100 µM | GI50 (Malme-3M): > 100 µM (inactive) | GI50 (XF498): > 100 µM (inactive) | GI50 (IGROV-1): > 100 µM (inactive) | GI50 (K562): > 100 µM (inactive) | GI50 (OVCAR-4): > 100 µM (inactive) | GI50 (SNB-75): > 100 µM (inactive) | GI50 (OVCAR-3): > 100 µM (inactive) | GI50 (COLO 205): > 100 µM (inactive) | GI50 (NCI-H460): > 100 µM (inactive) | GI50 (DLD-1): > 100 µM (inactive) | GI50 (A549): > 100 µM (inactive) | GI50 (U-251): > 100 µM (inactive) | GI50 (LOX IMVI): > 100 µM (inactive) | GI50 (EKVX): > 100 µM (inactive)
